Assay results: patent publication US8470829B2 (priority 2004, dated 2013)
pIC50: −log10 of the molar value. Where two headings read alike, the source gives them in different places.

How the values were obtained:
[1] = biological target: T1, human androgen receptor (Homo sapiens, UniProt P10275); assay: Measurement of agonist effect on androgen receptor (reporter gene assay, 11A11B2 cells); type: cell-based; details: compound concentration showing a transcription activity of 5% (0.1 nmol/L DHT = 100%, assay medium alone = 0%), 48 hours
T1 construct: expressed in transfected cells
T1 sequence (P10275 1-920): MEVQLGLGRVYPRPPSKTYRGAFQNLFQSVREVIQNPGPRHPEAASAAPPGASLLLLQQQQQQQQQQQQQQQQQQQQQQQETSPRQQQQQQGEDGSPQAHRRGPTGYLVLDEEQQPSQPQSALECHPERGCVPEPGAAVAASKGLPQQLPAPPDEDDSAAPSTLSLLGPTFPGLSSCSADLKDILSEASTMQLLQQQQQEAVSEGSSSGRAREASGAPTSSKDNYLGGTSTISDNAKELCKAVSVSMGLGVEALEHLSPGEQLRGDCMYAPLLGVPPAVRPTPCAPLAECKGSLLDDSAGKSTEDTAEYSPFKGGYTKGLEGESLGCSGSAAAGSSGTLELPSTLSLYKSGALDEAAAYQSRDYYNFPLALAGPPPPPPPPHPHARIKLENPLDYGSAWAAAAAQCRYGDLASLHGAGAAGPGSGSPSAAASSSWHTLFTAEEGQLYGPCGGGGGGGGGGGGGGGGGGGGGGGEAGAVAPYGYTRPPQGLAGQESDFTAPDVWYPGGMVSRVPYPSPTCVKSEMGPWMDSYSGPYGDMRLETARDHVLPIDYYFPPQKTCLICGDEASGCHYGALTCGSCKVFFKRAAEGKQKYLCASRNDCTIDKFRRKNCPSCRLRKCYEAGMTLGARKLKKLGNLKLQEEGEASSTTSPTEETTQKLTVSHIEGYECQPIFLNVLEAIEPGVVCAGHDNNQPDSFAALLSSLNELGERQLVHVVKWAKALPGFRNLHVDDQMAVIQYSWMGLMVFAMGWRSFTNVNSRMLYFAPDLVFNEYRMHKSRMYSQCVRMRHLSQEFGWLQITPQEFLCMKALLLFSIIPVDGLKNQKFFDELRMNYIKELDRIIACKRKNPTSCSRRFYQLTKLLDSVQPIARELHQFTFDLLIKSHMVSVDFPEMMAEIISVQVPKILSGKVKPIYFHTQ
Procedure: (§1) HeLa cells (purchased from Dai-Nippon Seiyaku K. K.) were cultured overnight in Dulbecco's Modified Eagle Medium containing no phenol red, but containing 3% charcoal-treated fetal bovine serum (hereafter referred to as DCC-FBS) (this medium is hereafter referred to as phenol-red-free DMEM). An MMTV-Luc-Hyg vector (reporter plasmid with mouse mammary tumor virus long terminal repeat, containing an androgen response element and a hygromycin resistance gene: a vector obtained by substituting a chloramphenicol acetyl transferease gene of a GM-CAT vector (A.T.C.C No. 67282) purchased from the A.T.C.C. with the firefly luciferase gene, and inserting a hygromycin resistance gene as a drug resistant gene), and pSG5-hAR-neo (human androgen receptor expression vector: a vector having an androgen receptor gene under the control of the SV40 promoter, and having a neomycin resistance gene inserted as a drug resistance gene) were transfected into the HeLa cells using an FuGENE™ 6 Transfection Reagent (obtained from Roche).
(§2) The clone cells thus obtained (11A11B2 cells) were maintained and propagated using DMEM containing 400 μg/mL neomycin, 200 μg/mL hygromycin and 10% FBS, and were propagated using phenol-red-free DMEM containing 10% DCC-FBS three to four days prior to the performance of an androgen receptor reporter gene assay.
The 11A11B2 cells were inoculated in a white clear-bottomed 96-well microplate (COSTAR) so that the cell concentration was 1.0×10^4/well, and were cultured overnight using phenol-red-free DMEM containing 3% DCC-FBS (hereafter referred to as the assay medium). Samples of the assay medium containing the compounds of the Examples and compounds of the Comparative Examples were added so that the final concentrations of the compounds of the Examples and compounds of the Comparative Examples were 1, 10, 100, 1,000 and 10,000 nmol/L), and the cells were cultured for 48 hours, after which the transcription activity value was measured. The transcription activity was measured using a Bright-Glo™ Luciferase Assay System (Promega).
The transcription activity rates of the compounds of the Examples were calculated from the transcription activity measured by the abovementioned method, with the transcription activity value obtained at 0.1 nmol/L DHT taken as 100%, and the transcription activity value in the case of the assay medium alone taken as 0%. The compound concentration showing a transcription activity of 5% (EC5 value) was calculated from a linear equation for two points on either side of 5%.

[2] = biological target: T1, human androgen receptor; assay: Investigation of antagonist effect on androgen receptor (reporter gene assay, 11A11B2 cells, with DHT); type: cell-based
Procedure: as §1, §2
The 11A11B2 cells were inoculated in a white clear-bottomed 96-well microplate (COSTAR) so that the cell concentration was 1.0×10^4/well, and were cultured overnight. The assay medium containing DHT was added so that the final concentration of DHT was 0.1 nmol/L, and samples of the assay medium containing the compounds of the Examples or compounds of the Comparative Examples were added so that the final concentrations of the compounds of the Examples or compounds of the Comparative Examples were 1, 10, 100, 1,000 and 10,000 nmol/L, respectively. After culturing for 48, hours, the transcription activity values were measured. The transcription activity was measured using a Bright-Glo™ Luciferase Assay System (Promega).
The transcription activity rates of the compounds of the Examples were calculated from the transcription activity measured by the abovementioned method, with the transcription activity value obtained at 0.1 nmol/L DHT taken as 100%, and the transcription activity value in the case of the assay, medium alone taken as 0%.

[3] = with 0.1 nmol/L DHT, transcription activity rate of Test Example 1 subtracted, 11A11B2 cells, 48 hours, read-out: IC50

Compound | EC5 [1] [µM] | pIC50 [2] | pIC50 [2, 3]
CCS(=O)(=O)N1CCC(N2C(=S)N(c3ccc(C#N)c(Cl)c3)C(=O)C2(C)C)CC1 [Example 9, 4-[3-(1-ethanesulfonylpiperidin-4-yl)-4,4-dimethyl-5-oxo-2-thioxoimidazolidin-1-yl]-2-chlorobenzonitrile] | >10 | 6.52 | 
COc1cc(N2C(=O)C(C)(C)N(c3ccc(Cl)c(NC(=O)OCCN(C)C)c3)C2=S)ccc1C#N [Example 54, {2-chloro-5-[3-(4-cyano-3-methoxyphenyl)-5,5-dimethyl-4-oxo-2-thioxoimidazolidin-1-yl]phenyl}-carbamic acid 2-dimethylaminoethyl ester] | >10 |  | 6.30
CC(=O)Nc1nc2cc(N3C(=S)N(c4ccc(C#N)c(Cl)c4)C(=O)C3(C)C)ccc2s1 [Example 16, 4-[3-(2-acetylaminobenzothiazol-5-yl)-4,4-dimethyl-5-oxo-2-thioxoimidazolidin-1-yl]-2-chlorobenzonitrile] | 3 | 7.40 | 
CC1(C)C(=O)N(c2ccc(C#N)c(C(F)(F)F)c2)C(=O)N1c1ccc(NC(=O)CN2CCNCC2)c(Cl)c1 [Example 21, N-{2-chloro-4-[3-(4-cyano-3-trifluoromethylphenyl)-5,5-dimethyl-2,4-dioxoimidazolidin-1-yl]-phenyl}-2-piperazin-1-ylacetamide] | >10 |  | 6.30
CCCNC(=O)N1CCC(N2C(=S)N(c3ccc(C#N)c(Cl)c3)C(=O)C2(C)C)CC1 [Example 41, 4-[3-(1-n-propylaminocarbonylpiperidin-4-yl)-4,4-dimethyl-5-oxo-2-thioxoimidazolidin-1-yl]-2-chlorobenzonitrile] | >10 | 6.30 | 
CN(C)CCOC(=O)Nc1cc(N2C(=S)N(c3ccc(C#N)c(C(F)(F)F)c3)C(=O)C2(C)C)ccc1Cl [Example 52, {2-chloro-5-[3-(4-cyano-3-trifluoromethylphenyl)-5,5-dimethyl-4-oxo-2-thioxoimidazolidin-1-yl]phenyl}-carbamic acid 2-dimethylaminoethyl ester] | >10 | 6.52 | 
CN(C)CCOC(=O)Nc1nc2cc(N3C(=S)N(c4ccc(C#N)c(Cl)c4)C(=O)C3(C)C)ccc2s1 [Example 64, {5-[3-(3-chloro-4-cyanophenyl)-5,5-dimethyl-4-oxo-2-thioxoimidazolidin-1-yl]benzothiazol-2-yl}carbamic acid 2-dimethylaminoethyl ester] | >10 |  | 6.70
CC(=O)N1CCC(N2C(=S)N(c3ccc(C#N)c(C(F)(F)F)c3)C(=O)C2(C)C)CC1 [Example 4, 4-[3-(1-acetylpiperidin-4-yl)-4,4-dimethyl-5-oxo-2-thioxoimidazolidin-1-yl]-2-trifluoromethylbenzonitrile] | >10 |  | 6.52
CCCS(=O)(=O)N1CCC(N2C(=S)N(c3ccc(C#N)c(Cl)c3)C(=O)C2(C)C)CC1 [Example 8, 4-[3-(1-propanesulfonylpiperidin-4-yl)-4,4-dimethyl-5-oxo-2-thioxoimidazolidin-1-yl]-2-chlorobenzonitrile] | >10 | 6.52 | 
CN(C)CCOC(=O)Nc1ccc(N2C(=S)N(c3ccc(C#N)c(C(F)(F)F)c3)C(=O)C2(C)C)cn1 [Example 58, {5-[3-(4-cyano-3-trifluoromethylphenyl)-5,5-dimethyl-4-oxo-2-thioxoimidazolidin-1-yl]pyridin-2-yl}carbamic acid 2-dimethylaminoethyl ester] | >10 | 6.30 | 
CN1CCN(CCOC(=O)Nc2cc(N3C(=O)N(c4ccc(C#N)c(C(F)(F)F)c4)C(=O)C3(C)C)ccc2Cl)CC1 [Example 29, {2-chloro-5-[3-(4-cyano-3-trifluoromethylphenyl)-5,5-dimethyl-2,4-dioxoimidazolidin-1-yl]phenyl}-carbamic acid 2-(4-methylpiperazin-1-yl)ethyl ester] | >10 |  | 6.30
